Results from ChEMBL document CHEMBL4257444, “Novel bipharmacophoric inhibitors of the cholinesterases with affinity to the muscarinic receptors M1 and M2” (Medchemcomm, 2017).

Tests used:
Cholinesterase [1] = target: Cholinesterase (Equus caballus, UniProt P81908)
Description: Inhibition of equine serum BChE using butyrylthiocholine iodide as substrate pretreated for 4.5 mins followed by substrate addition and measured after 2.5 mins by Ellman's method

physchem = settings: octanol/water
Description: Octanol/water partition co-efficient, log P of the compound by RP-HPLC analysis

Acetylcholinesterase [2] = target: Acetylcholinesterase (Electrophorus electricus, UniProt O42275)
Description: Inhibition of electric eel AChE using acetylthiocholine iodide as substrate pretreated for 4.5 mins followed by substrate addition and measured after 2.5 mins by Ellman's method

[3] = target: Acetylcholinesterase (Electrophorus electricus) (UniProt O42275); assay: Inhibition of electric eel AChE at 100 uM using acetylthiocholine iodide as substrate pretreated for 4.5 mins followed by substrate addition and measured after 2.5 mins by Ellman's method relative to control
Cholinesterase [4] = target: Cholinesterase (Homo sapiens, UniProt P06276); assay: Inhibition of human serum BChE using butyrylthiocholine iodide as substrate pretreated for 4.5 mins followed by substrate addition and measured after 2.5 mins by Ellman's method
Acetylcholinesterase [5] = target: Acetylcholinesterase (Homo sapiens, UniProt P22303); assay: Inhibition of recombinant human AChE expressed in HEK293 cells using acetylthiocholine iodide as substrate pretreated for 4.5 mins followed by substrate addition and measured after 2.5 mins by Ellman's method
HepG2 = assay: cells; settings: Homo sapiens, HepG2, 72 h
Description: Cytotoxicity against human HepG2 cells after 72 hrs by alamar blue assay

Homo sapiens = organism: Homo sapiens; assay: Selectivity ratio of compound effect for displacement of [3H]NMS from recombinant human M2 receptor expressed in CHO cell membranes to displacement of [3H]NMS from recombinant human M1 receptor expressed in CHO cell membranes

Chain of Cholinesterase (Equus caballus, UniProt P81908) (P81908 whole entry): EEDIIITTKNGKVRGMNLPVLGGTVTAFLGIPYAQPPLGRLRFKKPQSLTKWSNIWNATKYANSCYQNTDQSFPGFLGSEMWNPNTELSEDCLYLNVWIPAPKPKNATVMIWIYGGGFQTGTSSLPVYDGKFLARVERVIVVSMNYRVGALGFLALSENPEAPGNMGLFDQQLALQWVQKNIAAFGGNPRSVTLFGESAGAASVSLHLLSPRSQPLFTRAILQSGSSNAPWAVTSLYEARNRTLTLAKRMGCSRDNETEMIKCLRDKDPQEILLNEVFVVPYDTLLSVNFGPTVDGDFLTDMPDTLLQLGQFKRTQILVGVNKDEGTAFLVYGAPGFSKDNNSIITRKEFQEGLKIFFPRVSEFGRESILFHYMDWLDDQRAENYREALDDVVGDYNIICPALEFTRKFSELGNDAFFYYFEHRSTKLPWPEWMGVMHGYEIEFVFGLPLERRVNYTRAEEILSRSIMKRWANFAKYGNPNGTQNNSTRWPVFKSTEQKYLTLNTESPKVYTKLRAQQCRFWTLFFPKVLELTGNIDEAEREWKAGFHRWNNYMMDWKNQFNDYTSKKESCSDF
Chain of Acetylcholinesterase (Electrophorus electricus, UniProt O42275) (O42275 whole entry): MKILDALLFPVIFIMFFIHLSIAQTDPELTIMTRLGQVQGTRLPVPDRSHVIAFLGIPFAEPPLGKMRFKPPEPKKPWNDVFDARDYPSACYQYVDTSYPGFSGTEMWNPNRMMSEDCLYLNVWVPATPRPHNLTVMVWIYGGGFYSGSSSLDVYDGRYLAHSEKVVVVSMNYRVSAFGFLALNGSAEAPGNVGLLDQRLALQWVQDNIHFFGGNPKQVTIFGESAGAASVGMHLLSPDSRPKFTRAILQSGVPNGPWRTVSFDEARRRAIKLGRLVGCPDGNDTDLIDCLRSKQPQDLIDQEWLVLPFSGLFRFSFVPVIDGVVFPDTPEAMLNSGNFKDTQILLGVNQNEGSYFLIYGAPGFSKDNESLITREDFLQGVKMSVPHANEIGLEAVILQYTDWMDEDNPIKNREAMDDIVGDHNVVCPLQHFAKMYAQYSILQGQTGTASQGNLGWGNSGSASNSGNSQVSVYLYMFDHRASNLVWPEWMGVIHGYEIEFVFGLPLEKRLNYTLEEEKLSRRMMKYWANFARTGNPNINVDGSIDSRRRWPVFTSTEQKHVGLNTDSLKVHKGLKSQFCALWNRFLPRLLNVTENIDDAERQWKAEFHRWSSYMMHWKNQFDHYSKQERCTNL
Chain of Acetylcholinesterase (Homo sapiens, UniProt P22303) (P22303 whole entry): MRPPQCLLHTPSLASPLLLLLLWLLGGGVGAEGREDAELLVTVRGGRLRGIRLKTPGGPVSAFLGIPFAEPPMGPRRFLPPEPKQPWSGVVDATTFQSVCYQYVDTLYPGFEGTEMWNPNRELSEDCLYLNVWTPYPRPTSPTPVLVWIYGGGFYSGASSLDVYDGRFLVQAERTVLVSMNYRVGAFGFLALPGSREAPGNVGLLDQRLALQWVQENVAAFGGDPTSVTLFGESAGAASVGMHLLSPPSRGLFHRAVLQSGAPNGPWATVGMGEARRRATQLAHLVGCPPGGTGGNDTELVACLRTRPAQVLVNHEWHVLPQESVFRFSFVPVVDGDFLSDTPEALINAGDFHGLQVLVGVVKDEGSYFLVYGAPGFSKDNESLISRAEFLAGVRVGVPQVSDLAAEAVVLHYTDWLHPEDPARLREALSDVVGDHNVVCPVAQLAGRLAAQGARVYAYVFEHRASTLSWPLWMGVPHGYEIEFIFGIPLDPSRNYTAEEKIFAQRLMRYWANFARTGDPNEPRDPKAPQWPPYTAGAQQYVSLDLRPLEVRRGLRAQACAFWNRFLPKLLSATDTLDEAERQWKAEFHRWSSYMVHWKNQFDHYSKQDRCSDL
Chain of Cholinesterase (Homo sapiens, UniProt P06276) (P06276 whole entry): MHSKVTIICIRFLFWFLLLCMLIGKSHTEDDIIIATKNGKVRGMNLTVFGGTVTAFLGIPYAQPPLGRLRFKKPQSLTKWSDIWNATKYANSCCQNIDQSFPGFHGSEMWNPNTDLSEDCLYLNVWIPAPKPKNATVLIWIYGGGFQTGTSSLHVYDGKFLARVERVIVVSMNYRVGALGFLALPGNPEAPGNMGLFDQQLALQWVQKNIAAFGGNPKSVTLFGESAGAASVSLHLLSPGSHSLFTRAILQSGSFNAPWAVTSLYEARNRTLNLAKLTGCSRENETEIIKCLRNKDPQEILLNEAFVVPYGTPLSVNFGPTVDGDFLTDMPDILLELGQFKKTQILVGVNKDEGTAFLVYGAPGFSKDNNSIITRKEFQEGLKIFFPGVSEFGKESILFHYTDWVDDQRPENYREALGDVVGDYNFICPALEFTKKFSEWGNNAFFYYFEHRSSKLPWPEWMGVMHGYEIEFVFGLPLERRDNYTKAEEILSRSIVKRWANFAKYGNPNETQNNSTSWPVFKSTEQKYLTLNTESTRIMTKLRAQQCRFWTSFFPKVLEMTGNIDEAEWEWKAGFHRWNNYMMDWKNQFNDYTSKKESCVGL
Chain of Acetylcholinesterase (Electrophorus electricus) (O42275 24-633 limits assumed): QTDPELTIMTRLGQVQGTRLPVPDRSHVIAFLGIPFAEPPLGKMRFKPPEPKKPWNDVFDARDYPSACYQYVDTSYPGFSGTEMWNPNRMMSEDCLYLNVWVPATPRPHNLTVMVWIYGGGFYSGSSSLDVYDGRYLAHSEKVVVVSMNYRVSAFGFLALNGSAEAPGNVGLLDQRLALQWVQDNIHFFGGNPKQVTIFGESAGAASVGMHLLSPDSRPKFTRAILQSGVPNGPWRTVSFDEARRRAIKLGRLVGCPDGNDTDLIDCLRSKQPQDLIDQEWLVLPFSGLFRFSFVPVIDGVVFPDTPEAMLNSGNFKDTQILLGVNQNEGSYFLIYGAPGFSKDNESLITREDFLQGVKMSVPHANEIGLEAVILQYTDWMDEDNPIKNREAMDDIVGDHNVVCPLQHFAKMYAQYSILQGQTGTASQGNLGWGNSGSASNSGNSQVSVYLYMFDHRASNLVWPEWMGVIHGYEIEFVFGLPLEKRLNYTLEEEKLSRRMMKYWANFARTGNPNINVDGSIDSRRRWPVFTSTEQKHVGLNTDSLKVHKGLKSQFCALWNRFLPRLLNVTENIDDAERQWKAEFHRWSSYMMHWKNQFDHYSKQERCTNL

| Compound | IC50 (Cholinesterase [1]) | logP (physchem) | IC50 (Acetylcholinesterase [2]) | inhibition [3] | IC50 (Cholinesterase [4]) | IC50 (Acetylcholinesterase [5]) | IC50 (HepG2) | Selectivity ratio (Homo sapiens) |
| --- | --- | --- | --- | --- | --- | --- | --- | --- |
| C[N+](C)(CC#CCOC1=NOCC1)CCCCCCC[N+](C)(C)CCCN1C(=O)c2ccccc2C1=O | 6460 nM | 0.79 | 14800 nM | – | – | – | – | – |
| C[N+](C)(CC#CCOc1ccon1)CCCC[N+](C)(C)CCCN1C(=O)c2ccccc2C1=O | 85100 nM | 1.55 | – | 19.1% | – | – | – | – |
| C[N+](C)(CC#CCOc1ccon1)CCCCCC[N+](C)(C)CCCN1C(=O)c2ccccc2C1=O | 38900 nM | 0.99 | – | 32.2% | – | – | – | – |
| C[N+](C)(CC#CCOC1=NOCC1)CCCCCCCCC[N+](C)(C)CCCN1C(=O)c2ccccc2C1=O | 13200 nM | 0.79 | 15800 nM | – | – | – | – | – |
| C[N+](C)(CC#CCOc1ccon1)CCCCCCCC[N+](C)(C)CCCN1C(=O)c2ccccc2C1=O | 7940 nM | 0.83 | 67600 nM | – | – | – | – | – |
| C[N+](C)(CC#CCOC1=NOCC1)CCCCCCCCCC[N+](C)(C)CCCN1C(=O)c2ccccc2C1=O | 4270 nM | 0.8 | 5500 nM | – | 1950 nM | 13200 nM | – | – |
| C[N+](C)(CC#CCOC1=NOCC1)CCCCCC[N+]1(C)CCC(N2C(=O)c3ccccc3C2=O)CC1 (configuration not stated) | 10700 nM | 0.84 | 2400 nM | – | – | – | – | – |
| c1ccc2c(CCCCCCCCCCNc3c4c(nc5ccccc35)CCCC4)c3c(nc2c1)CCCC3 | 0.457 nM | – | 1 nM | – | – | – | < 1250 nM | – |
| CC(C)(CN1C(=O)c2cccc3cccc(c23)C1=O)C[N+](C)(C)CCCCCCCC[N+](C)(C)CC#CCOC1=NOCC1 | 347 nM | 1.61 | 794 nM | – | – | – | – | – |
| BrCCCCCCCNc1c2c(nc3ccccc13)CCCC2 | 263 nM | – | 0.398 nM | – | – | – | – | – |
| CC(C)(CN1C(=O)c2cccc3cccc(c23)C1=O)C[N+](C)(C)CCCCCCCCCC[N+](C)(C)CC#CCOC1=NOCC1 | 102 nM | 1.77 | 316 nM | – | 263 nM | 1070 nM | – | – |
| BrCCCCCCCCCCNc1c2c(nc3ccccc13)CCCC2 | 8.71 nM | – | 0.562 nM | – | – | – | – | – |
| CC(C)(CN1C(=O)c2cccc3cccc(c23)C1=O)C[N+](C)(C)CCCCCCC[N+](C)(C)CC#CCOC1=NOCC1 | 204 nM | 1.7 | 912 nM | – | – | – | – | – |
| C[N+](C)(CC#CCOC1=NOCC1)CCCCCCCNc1c2c(nc3ccccc13)CCCC2 | 5.13 nM | 2.05 | 1.74 nM | – | 4.57 nM | 2 nM | > 160000 nM | 3 |
| C[N+](C)(CC#CCOC1=NOCC1)CCCCCCCCCCNc1c2c(nc3ccccc13)CCCC2 | 1.78 nM | 3.28 | 0.155 nM | – | 1.82 nM | 1.78 nM | 32200 nM | 8 |
| C[N+](C)(CC#CCOC1=NOCC1)CCCCCC[N+]1(C)CCC(N2C(=O)c3cccc4cccc(c34)C2=O)CC1 (configuration not stated) | 851 nM | 1.54 | 1050 nM | – | – | – | – | – |
| C[N+](C)(CC#CCOC1=NOCC1)CCCCCCCC[N+](C)(C)CCCN1C(=O)c2ccccc2C1=O | 7410 nM | 0.78 | 12900 nM | – | – | – | – | – |
| c1ccc2c(NCCCCCCCNc3c4c(nc5ccccc35)CCCC4)c3c(nc2c1)CCCC3 | 0.724 nM | – | 0.0331 nM | – | – | – | < 1380 nM | – |
| CC(C)(CN1C(=O)c2cccc3cccc(c23)C1=O)C[N+](C)(C)CCCCCCCCC[N+](C)(C)CC#CCOC1=NOCC1 | 324 nM | 1.69 | 363 nM | – | – | – | – | – |
